# Measurements from paper PMC9818267, “Brain Natriuretic Peptide Protects Cardiomyocytes from Apoptosis and Stimulates Their Cell Cycle Re-Entry in Mouse Infarcted Hearts” (Cells, 2022).
# No end group written: not given here.
# Columns and labels:
# ERK = experiment: Western blot pERK/ERK in adult CMs stimulated in vitro; type: cell-based, mouse; settings: adult CMs stimulated with BNP for 2–3 h in vitro, vs untreated
# Procedure: (§1) CM isolations were performed thanks to the Langendorff-Free method. […] Thereafter, the heart was removed from the chest and the left ventricle was perfused with enzymatic solution containing collagenase II (120 U/mL), collagenase IV (120 U/mL) (Worthington, Biochemical Corporation, USA) and protease XIV (0.05 mg/mL or 0.175 U/mL) (Sigma-Aldrich, Merck, Darmstadt, Germany). In each experiment, a full digestion of the heart was obtained. After digestion, cardiac cells were dissociated by gentle pipetting, filtered and collected after 25 min sedimentation. For infarcted hearts, the tissue was separated into the three zones (ZI, BZ and RZ). The three different areas were weighted before gentle pipetting.
# (§2) Total proteins were extracted from CMs isolated from adult infarcted and unmanipulated neonatal and adult hearts. Proteins were transferred to nitrocellulose membranes (Biorad) before incubation with primary antibodies overnight at 4 °C. Secondary antibodies were added 1 h at RT in the dark (Supplementary File S1). The signal was detected and quantified with the Odyssey infrared imaging system (LI-COR. Biosciences, Bad Homburg, Germany). All results were normalized to the tubulin protein level or to the total protein level thanks to stainings with the Revert 700 Total protein Stain (LI-COR).
# [1] = Survival of infarcted mice at 14 days; type: in vivo, mouse; settings: 14 days after MI; BNP ip every 2 days; saline group 83.9%
# Procedure: To generate a permanent infarction, a ligation of the left anterior descending coronary artery (LAD) was performed in 6–8-week-old C57BL/6- or 8-week-old Myh6 MerCreMer mice, already injected with Tamoxifen 2 weeks before. Mice were anesthetized with ketamine/xylazine and acepromazine (65 mg/kg, 15 mg/kg, 2 mg/kg, respectively). Mice were intubated and ventilated during all the entire period of surgery. At the third intercostal space, the chest cavity was opened and at the left upper sterna border, the LAD coronary artery was ligated with a 7–0 nylon suture at about 1–2 mm from the atria. After surgery, Temgesic (Buprenorphine, 0.1 mg/kg) was injected subcutaneously as soon as the mice woken up and every 8–12 h for 2 days. Adult mice were sacrificed by lethal injection of pentobarbital (150 mg/kg intraperitoneally) 2 weeks after the surgery. The breathing arrest was controlled and cervical dislocation was performed.
# BNP was injected into infarcted adults, and unmanipulated neonatal and adult mice. Directly after surgery, NaCl (saline) or BNP (1.3 µg/20 g in 20 µL) was injected into the left ventricle cavity. At 24 h after MI, mice were intraperitoneal (ip) injected with BNP (2 µg/20 g mice) or saline every 2 days. C57BL/6 mice were sacrificed 1- and 14 days post-MI and Myh6 MerCreMer mice were sacrificed 14 days post-MI (Figure 1A). […]
# [2] = cited from earlier work
# From the text: In previous work, we highlighted the cardioprotective effect of BNP intraperitoneal (ip) injections in infarcted mice. Contractility increased twofold and heart remodeling (the percentage of changes of the left ventricle volume) decreased (−79%, p = 0.04) 4 weeks after MI in BNP-treated mice when compared to saline-injected mice. At the cellular level, BNP injections decreased the infarct size by 20% and reduced fibrosis. At least a part of the BNP positive effect in infarcted mice is due to increased cardiac angiogenesis and vasculogenesis. Indeed, BNP stimula ... || The concentrations of BNP used in this study were already shown to stimulate the mobilization, proliferation and differentiation of the endothelial precursor cells. In our first work, we verified that these concentrations have no impact on blood pressure, heart rate and cardiac output. In contrast, these BNP concentrations decrease the heart remodeling, the left ventricular volume and left ventricular end diastolic diameter and increase by 2-fold the contractility, 4 weeks after MI [11]. Furthermore, at the cellular level, these BNP concentrations increase the number of ca ...
# phospholamban (PLB) = experiment: Western blot pPLB/PLB in CMs isolated from BNP-injected hearts; type: in vivo, mouse; settings: vs saline
# Procedure: BNP was injected into infarcted adults, and unmanipulated neonatal and adult mice. Directly after surgery, NaCl (saline) or BNP (1.3 µg/20 g in 20 µL) was injected into the left ventricle cavity. At 24 h after MI, mice were intraperitoneal (ip) injected with BNP (2 µg/20 g mice) or saline every 2 days. C57BL/6 mice were sacrificed 1- and 14 days post-MI and Myh6 MerCreMer mice were sacrificed 14 days post-MI (Figure 1A). Neonatal C57BL/6 mice (3 days after birth) were injected ip with NaCl or BNP every two days (1 µg/2 g; Bachem; synthetic mouse BNP (1–45) peptide (catalog number H-7558)). Mice were sacrificed 11 days after birth (Figure 1B). Eight week old C57 BL/6 mice or Myh6 MerCreMer unmanipulated mice were injected ip with BNP (2 µg/20 g mice) or NaCl every two days (Figure 1C). Two weeks after the first injection, mice were sacrificed. To assess for the implication of the ERK signaling pathway in the BNP effect on CMs, PD0325901 (60 µg/20 g mice in 80 µL) was administered by gavage in adult unmanipulated mice 1 h before BNP injection (2 µg/20 g mice).
# as §1, §2
# cardiomyocytes (CMs) [3] = experiment: CM nucleation status and cross-sectional area; type: in vivo, mouse; settings: vs saline
# Procedure: After 25 min sedimentation, CMs were used for molecular analysis, Western blot analysis, flow cytometry analysis or fixed with 2.5% PFA 15 min at room temperature (RT) and stained with DAPI to evaluate the frequency of mono and bi-nucleated CMs.
# CM area was assessed by α actinin and laminin stainings and image J software (1.53t version from the 24.08.2022, Mac OX X, Bethesda, MD, USA) for processing using CIF outliner cell Plugin. Only CMs with circularity >0.5 were considered.
# caspase 3+ CMs = experiment: Immunostaining of caspase 3+ CMs in infarcted area; type: in vivo, mouse; settings: infarcted area 1 day after MI, BNP vs saline
# Procedure: Cells or OCT heart sections (5 µm-thick cryosections) were washed in PBS 1X and fixed in paraformaldehyde (2%) or formol (4%) for 10 min at RT. After 10 min of permeabilization (0.3% Triton x-100 in PBS) and one hour of blocking with normal serum, sections were probed with primary antibodies overnight at 4 °C (Supplementary File S1). The second day, the secondary antibody was added on cells or heart sections. Slides were mounted with Dabco (Sigma) and pictures were captured with Nikon Eclipse TS100 or 90i microscope. Images were processed with Adobe Photoshop CC2015.
# cardiomyocytes (CMs) [4] = experiment: qRT-PCR on CMs isolated from treated hearts; type: in vivo, mouse; settings: CMs from border area of infarcted hearts 10 days after surgery, BNP vs saline
# cardiomyocytes (CMs) [5] = settings: adult CMs from unmanipulated BNP-treated hearts vs saline, p = 0.008; cited from earlier work
# From the text: The percentages of mononucleated CMs increased in all the BNP-treated hearts (Figure 2B,E,G).
substance,measurement,setting,value
"Brain Natriuretic Peptide (SQGSTLRVQQRPQNSKVTHISSCFGHKIDRIGSVSRLGCNALKLL; not fully specified; ends and bridges not checked; UniProt P40753 77-121, looked up) [BNP, synthetic mouse BNP (1–45) peptide (Bachem, catalog number H-7558)]",pERK/ERK ratio increase,ERK,1.9 ×
same,survival of infarcted mice,[1],84.2%
same,heart remodeling (percentage of changes of the left ventricle volume) change,"[2]; 4 weeks after MI, BNP vs saline, p = 0.04",−79%
same,contractility increase,"[2]; 4 weeks after MI, BNP vs saline",twofold
same,"impact on blood pressure, heart rate and cardiac output",[2]; BNP concentrations used in this study,no impact
same,decrease of infarct size,[2]; BNP injections in infarcted mice,20%
same,pPLB/PLB ratio change,phospholamban (PLB); CMs from remote zone (RZ) of infarcted hearts after BNP injections,−32%
same,pPLB/PLB ratio increase,phospholamban (PLB); CMs from unmanipulated adult hearts after BNP injections (2–3 h before CM isolation),1.5 ×
same,pPLB/PLB ratio increase,phospholamban (PLB); CMs from unmanipulated neonatal hearts after BNP injections,3.5 ×
same,pPLB/PLB ratio increase,phospholamban (PLB); CMs isolated from border zone (BZ) of infarcted hearts after BNP injections,2.7 ×
same,percentages of mononucleated CMs,"cardiomyocytes (CMs) [3]; all BNP-treated hearts (infarcted, neonatal, adult)",increased
same,frequency of small CMs (cross-sectional area),cardiomyocytes (CMs) [3]; all areas of BNP-treated infarcted hearts,significantly higher
same,number of caspase 3+ CMs change,caspase 3+ CMs,−13%
same,myh7 mRNA level increase,cardiomyocytes (CMs) [4],2.7 ×
same,CM cross-sectional area change,cardiomyocytes (CMs) [5],−6%
